By IC50 is commonly meant the point on the concentration scale where inhibition reaches its midpoint. Low readings indicate greater potency, high ones weaker potency.

Format in all cases: biochemical
For one test, the target named is T1, PI3KCD (PI3K delta) (Homo sapiens, UniProt O00329).
T1 construct: gene PIK3CD; enzyme used with Merck Millipore PI3K HTRF kit; with Phosphatidylinositol 3-kinase regulatory subunit alpha
As to the kind of experiment: HTRF PI3K kinase assay. Conditions: PIP2 substrate, ATP; 10 min pre-incubation, 30 min, room temperature.

Another test concerns the target T2, PI3KCG (PI3K gamma) (Homo sapiens, UniProt P48736).
T2 construct: gene PIK3CG; enzyme used with Merck Millipore PI3K HTRF kit
The test can be described thus: HTRF PI3K kinase assay. Particulars: PIP2 substrate, ATP; 10 min pre-incubation, 30 min, room temperature. In general terms: In TR-FRET formats the signal depends on donor and acceptor labels being close together.

The next test concerns the target T3, BRAF^V600E (B-Raf^V600E) (Homo sapiens, UniProt P15056, V600E).
T3 construct: enzyme of BPS Bioscience B-Raf V600E assay kit
As to the kind of experiment: luminescence kinase assay (Kinase-Glo Max). Conditions: 500 µM ATP, Raf substrate, 45 min, 30°C.

T3 sequence (P15056 2-766 V600E): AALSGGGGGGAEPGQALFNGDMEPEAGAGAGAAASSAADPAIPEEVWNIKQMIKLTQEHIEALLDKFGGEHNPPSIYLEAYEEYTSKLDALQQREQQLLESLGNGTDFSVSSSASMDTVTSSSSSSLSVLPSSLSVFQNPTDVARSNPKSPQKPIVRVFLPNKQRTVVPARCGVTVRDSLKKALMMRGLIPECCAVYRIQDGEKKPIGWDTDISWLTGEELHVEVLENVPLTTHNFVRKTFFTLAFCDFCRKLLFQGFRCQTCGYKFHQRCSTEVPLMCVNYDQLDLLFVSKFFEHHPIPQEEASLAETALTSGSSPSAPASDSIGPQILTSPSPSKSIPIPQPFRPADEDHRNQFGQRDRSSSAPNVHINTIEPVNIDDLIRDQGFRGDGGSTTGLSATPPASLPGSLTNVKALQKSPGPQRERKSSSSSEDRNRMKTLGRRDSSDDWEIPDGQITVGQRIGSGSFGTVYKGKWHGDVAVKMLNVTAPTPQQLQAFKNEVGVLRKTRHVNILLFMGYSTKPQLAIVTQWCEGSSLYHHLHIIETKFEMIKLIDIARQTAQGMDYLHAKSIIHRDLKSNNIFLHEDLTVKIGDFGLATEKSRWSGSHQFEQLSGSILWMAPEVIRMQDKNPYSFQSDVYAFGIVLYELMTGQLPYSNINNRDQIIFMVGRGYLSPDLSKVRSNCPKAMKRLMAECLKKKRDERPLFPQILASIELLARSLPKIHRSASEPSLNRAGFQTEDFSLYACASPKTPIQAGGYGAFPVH
T1 sequence (O00329 whole entry): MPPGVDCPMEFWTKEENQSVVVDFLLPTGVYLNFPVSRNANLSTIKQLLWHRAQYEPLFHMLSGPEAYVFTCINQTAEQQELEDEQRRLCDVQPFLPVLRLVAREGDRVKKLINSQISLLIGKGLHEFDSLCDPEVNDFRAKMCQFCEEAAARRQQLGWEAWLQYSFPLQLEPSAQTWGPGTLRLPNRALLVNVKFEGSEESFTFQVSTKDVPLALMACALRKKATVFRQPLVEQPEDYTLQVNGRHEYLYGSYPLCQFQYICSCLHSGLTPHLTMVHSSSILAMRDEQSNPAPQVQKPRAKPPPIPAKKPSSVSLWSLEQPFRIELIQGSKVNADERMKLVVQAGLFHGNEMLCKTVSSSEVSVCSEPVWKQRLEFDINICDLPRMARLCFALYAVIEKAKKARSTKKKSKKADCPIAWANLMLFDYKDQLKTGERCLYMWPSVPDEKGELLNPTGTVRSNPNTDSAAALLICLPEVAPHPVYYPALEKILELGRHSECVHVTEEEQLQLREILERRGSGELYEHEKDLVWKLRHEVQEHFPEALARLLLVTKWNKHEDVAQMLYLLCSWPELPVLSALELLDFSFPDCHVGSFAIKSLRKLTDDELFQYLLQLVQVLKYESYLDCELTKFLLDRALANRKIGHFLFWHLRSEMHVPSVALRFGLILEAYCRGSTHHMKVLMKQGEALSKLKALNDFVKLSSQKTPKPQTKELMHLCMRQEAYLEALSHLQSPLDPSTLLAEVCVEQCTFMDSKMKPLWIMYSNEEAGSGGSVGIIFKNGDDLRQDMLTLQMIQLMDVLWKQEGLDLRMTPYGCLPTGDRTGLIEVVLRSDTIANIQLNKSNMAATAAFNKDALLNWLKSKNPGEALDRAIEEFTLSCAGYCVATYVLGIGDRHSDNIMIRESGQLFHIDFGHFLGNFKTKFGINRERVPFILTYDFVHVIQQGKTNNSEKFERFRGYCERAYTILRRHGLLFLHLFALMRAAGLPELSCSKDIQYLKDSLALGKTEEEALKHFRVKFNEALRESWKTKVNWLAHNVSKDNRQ
T1 sequence (P27986 2-724 partner): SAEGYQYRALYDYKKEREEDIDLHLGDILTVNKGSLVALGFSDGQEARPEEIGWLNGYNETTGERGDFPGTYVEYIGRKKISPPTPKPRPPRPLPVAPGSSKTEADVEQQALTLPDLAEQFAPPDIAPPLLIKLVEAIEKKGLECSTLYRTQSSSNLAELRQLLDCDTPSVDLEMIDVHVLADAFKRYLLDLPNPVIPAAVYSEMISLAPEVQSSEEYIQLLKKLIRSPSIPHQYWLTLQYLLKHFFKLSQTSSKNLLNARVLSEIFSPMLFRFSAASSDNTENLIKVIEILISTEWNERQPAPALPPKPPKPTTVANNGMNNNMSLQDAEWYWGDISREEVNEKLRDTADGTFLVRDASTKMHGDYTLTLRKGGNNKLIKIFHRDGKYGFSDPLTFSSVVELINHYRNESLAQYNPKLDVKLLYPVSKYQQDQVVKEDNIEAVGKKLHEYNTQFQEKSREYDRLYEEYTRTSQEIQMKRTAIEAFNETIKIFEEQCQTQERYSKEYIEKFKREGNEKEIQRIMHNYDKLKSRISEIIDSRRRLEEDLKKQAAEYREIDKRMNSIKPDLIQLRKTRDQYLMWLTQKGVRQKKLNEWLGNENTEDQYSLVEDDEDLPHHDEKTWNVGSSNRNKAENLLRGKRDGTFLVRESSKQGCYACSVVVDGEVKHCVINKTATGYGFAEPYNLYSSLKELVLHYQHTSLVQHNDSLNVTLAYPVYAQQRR
T2 sequence (P48736 whole entry): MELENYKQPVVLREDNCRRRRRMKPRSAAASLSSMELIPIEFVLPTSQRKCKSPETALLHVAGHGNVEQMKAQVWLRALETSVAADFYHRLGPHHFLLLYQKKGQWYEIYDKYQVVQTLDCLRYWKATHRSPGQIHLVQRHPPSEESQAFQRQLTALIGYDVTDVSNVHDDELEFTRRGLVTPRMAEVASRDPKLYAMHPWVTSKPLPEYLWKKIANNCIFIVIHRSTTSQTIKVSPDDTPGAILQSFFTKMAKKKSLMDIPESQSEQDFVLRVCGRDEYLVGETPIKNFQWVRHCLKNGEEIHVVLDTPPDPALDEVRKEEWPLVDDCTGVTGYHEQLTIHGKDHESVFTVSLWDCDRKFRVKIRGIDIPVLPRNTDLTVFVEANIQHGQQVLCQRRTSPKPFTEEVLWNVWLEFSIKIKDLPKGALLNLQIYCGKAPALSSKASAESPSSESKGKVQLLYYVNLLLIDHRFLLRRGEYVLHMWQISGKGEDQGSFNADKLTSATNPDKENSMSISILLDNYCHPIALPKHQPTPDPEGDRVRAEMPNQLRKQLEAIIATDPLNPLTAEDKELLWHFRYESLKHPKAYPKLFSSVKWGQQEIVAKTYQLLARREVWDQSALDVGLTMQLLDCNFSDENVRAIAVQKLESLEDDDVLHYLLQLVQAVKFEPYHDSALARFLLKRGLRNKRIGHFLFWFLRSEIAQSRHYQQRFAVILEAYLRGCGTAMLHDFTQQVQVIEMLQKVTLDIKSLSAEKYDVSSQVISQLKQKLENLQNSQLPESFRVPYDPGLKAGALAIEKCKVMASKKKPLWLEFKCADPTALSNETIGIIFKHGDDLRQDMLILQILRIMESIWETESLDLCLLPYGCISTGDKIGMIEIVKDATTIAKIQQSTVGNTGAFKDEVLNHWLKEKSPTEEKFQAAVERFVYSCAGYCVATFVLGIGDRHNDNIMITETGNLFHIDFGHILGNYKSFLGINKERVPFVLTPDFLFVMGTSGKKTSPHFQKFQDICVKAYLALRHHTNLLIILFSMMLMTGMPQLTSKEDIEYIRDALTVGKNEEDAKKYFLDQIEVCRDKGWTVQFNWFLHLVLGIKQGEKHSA

`Cc1cc(C)c(CC(=O)N2C[C@@H]3CC(=O)NCCN(C)C(=O)c4cccn(c4=O)Cc4cn(nn4)[C@@H]3C2)c(C)c1` (relative stereo) [CB-006-3, rel-(17aS,20aS)-19-(mesitylacetyl)-12-methyl-12,13,14,15,17,17a,18,19,20,20a-decahydro-6,10-methano-1,4-methenopyrrolo[3,4-r] [1,2,3,6,12,15]hexaazacyclononadecine-11,16,21-trione]: the IC50 at PI3KCD (PI3K delta) was 160 nM; at PI3KCG (PI3K gamma), 75.8 nM; against BRAF^V600E (B-Raf^V600E) it was 70.8 nM.

Values taken from paper PMC10207986, “Computational high-throughput screening and in vitro approaches identify CB-006-3; A novel PI3K-BRAF^V600E dual targeted inhibitor against melanoma” (Oncology Research, 2022).
